The record followed here is US5280125A, “Chemical process for the preparation of 3-alkylated indole” (Imperial Chemical Industries PLC, priority 1990, dated 1994).

Where only a bound is given, the exact number is not on record here.

The test system of one series is leukotriene LTD4. Nature of the series: guinea-pig aerosol test (LTD4 aerosol challenge, onset of dyspnea). In kind it is in vivo. The method, then:
According to this procedure, guinea-pigs are pre-dosed with test compound as a solution in poly(ethylene glycol) (generally 1 hour) before an aerosol challenge of leukotriene LTD4 (starting with 2 ml of a 30 microgram/ml solution) and the effect of the test compound on the average time of leukotriene initiated change in breathing pattern (such as onset of dyspnea) recorded and compared with that in undosed, control guinea-pigs. Percent protection engendered by a test compound was calculated from the time delay to the onset of dyspnea compared to that for control animals.

Another series deals with LTC4, LTD4 and/or LTE4. Nature of the series: in vitro leukotriene antagonist tests (guinea-pig tracheal strip preparation or receptor-ligand binding assay). The settings on record: in one of the above in vitro tests.

The molecule `COc1cc(C(=O)NS(=O)(=O)c2ccccc2C)ccc1Cc1cn(C)c2ccc(C(=O)NC[C@H](C)CC(F)(F)F)cc12` [compound of formula I substantially in the form of the (R)-enantiomer, (R)-4-[5-(N-[4,4,4-trifluoro-2-methylbutyl]carbamoyl)-1-methylindol-3-yl-methyl]-3-methoxy-N-o-tolylsulphonylbenzamide] showed an ED50 in the series on leukotriene LTD4 (Cavia porcellus, 1 h, oral administration, protection against LTD4 aerosol-induced dyspnea) of 1.1 µmol/kg. Moreover, the untoward side-effects entry in the series with leukotriene LTD4 (oral, at several multiples of the minimum effective dose) is “without any indication of untoward side-effects”.
Regarding `COc1cc(C(=O)NS(=O)(=O)c2ccccc2C)ccc1Cc1cn(C)c2ccc(C(=O)NCC(C)CC(F)(F)F)cc12` (stereo not drawn) [compound of formula I, 4-[5-(N-[4,4,4-trifluoro-2-methylbutyl]carbamoyl)-1-methylindol-3-ylmethyl]-3-methoxy-N-o-tolylsulphonylbenzamide], the “concentration showing statistically significant activity as LTC4, LTD4 and/or LTE4 antagonist” value in the series with LTC4, LTD4 and/or LTE4 is given as ≤ 10^-8 M.

As usually defined, the ED50 is the midpoint of the dose-response relation. A high value points to a need for a large dose.
